Results as given in US12150940B2, “WASp-protecting small molecules, compositions, methods and uses thereof in the treatment of innate and acquired immune-related disorders or conditions” (BAR ILAN UNIVERSITY, priority 2016, dated 2024).
Peptide text beside a SMILES is read from it. * marks the point of attachment. Cbz = O=C(OCc1ccccc1)*

Target: T1, WASp (Homo sapiens, UniProt P42768)
T1 construct: endogenous in cells; host or cells: primary human platelets from healthy donors
T1 sequence (P42768 1-502): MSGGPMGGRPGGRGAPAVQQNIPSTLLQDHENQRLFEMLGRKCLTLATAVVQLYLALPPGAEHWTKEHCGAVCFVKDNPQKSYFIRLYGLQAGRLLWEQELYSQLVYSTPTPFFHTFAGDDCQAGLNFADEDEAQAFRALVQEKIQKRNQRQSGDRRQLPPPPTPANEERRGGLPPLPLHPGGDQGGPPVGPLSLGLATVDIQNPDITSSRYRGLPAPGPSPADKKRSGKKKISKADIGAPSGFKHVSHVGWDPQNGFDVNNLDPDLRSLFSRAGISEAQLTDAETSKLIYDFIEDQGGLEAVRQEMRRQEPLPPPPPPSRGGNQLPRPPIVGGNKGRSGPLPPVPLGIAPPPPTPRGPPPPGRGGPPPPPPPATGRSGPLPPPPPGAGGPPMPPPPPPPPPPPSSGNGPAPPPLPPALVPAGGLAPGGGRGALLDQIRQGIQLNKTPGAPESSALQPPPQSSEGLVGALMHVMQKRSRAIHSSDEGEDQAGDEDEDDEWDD
Assay: WASp expression in TRAP-6-activated platelets (western blot)
Type: cell-based
Experimental: FIG. 4A-4B. Freshly-isolated platelets were incubated with SMC #6 or control at 37° C. for the indicated times. The platelets were either stimulated (+) with TRAP-6 (10 μM) or left unstimulated (−), followed by lysis. Lysates were analyzed for WASp expression by immunoblotting with anti-WASp and anti-GAPDH as loading control (FIG. 4A). Relative WASp expression was determined by densitometric analysis and is presented in a summarizing graph of FIG. 4B. Error bars represent the SE from the mean. P values are presented and were calculated by two-tailed Student's t-test. Data are representative of three independent experiments.
Jurkat T-cells (FIG. 5A) or Freshly-isolated PBMCs (FIG. 5B) were incubated for 15 min at 37° C. with either control or the indicated WASp-binding SMCs, followed by co-stimulation with anti-CD3 and anti-CD28 and lysis. Freshly-isolated platelets were incubated for 15 min at 37° C. with either control or the indicated WASp-binding SMCs, followed by stimulation with TRAP-6 (10 μM) and lysis (FIG. 5C). Lysates were analyzed for WASp expression by immunoblotting with anti-WASp and anti-GAPDH as loading control. Western blot is representative of three independent experiments. […] Relative WASp expression was determined by densitometric analysis. […]
FIG. 6A-6D. […] Lysates were analyzed for WASp expression by immunoblotting with anti-WASp and anti-GAPDH as loading control (FIG. 6A). […]

## CC(=O)N[C@H]1C[C@@H](c2ccc3c(c2)nnn3C)O[C@@H](c2ccc(Cl)cc2)C1 [SMC #6, N-[(2R,4R,6S)-2-(4-chlorophenyl)-6-(1-methylbenzotriazol-5-yl)oxan-4-yl]acetamide]
40 μM, 15 min pre-incubation, vs DMSO control
  WASp degradation in activated platelets: attenuated WASp degradation

## CC(C)C[C@@H](C=O)NC(=O)[C@H](CC(C)C)NC(=O)[C@H](CC(C)C)NC(=O)OCc1ccccc1 [MG132] (Cbz-Leu-Leu-Leu-aldehyde)
Platelets after 15 min of activation, with vs without proteasome inhibitor (10 μM, 1 h)
  increase in WASp expression: more than 2 fold
